# Results from ChEMBL document CHEMBL3286094, “Synthesis and biological evaluation of novel bisbenzimidazoles as Escherichia coli topoisomerase IA inhibitors and potential antibacterial agents” (J Med Chem, 2014).
# Active and inactive are the calls of the source. No cut-off for these calls is given here.
# Experiments:
# Escherichia coli [1] = test: Antibacterial activity against ampicillin/ciprofloxacin/gentamicin/tetracycline-resistant Escherichia coli 555 assessed as growth inhibition after 18 to 24 hrs by broth microdilution method; format: functional
# Escherichia coli [2] = test: Bactericidal activity against ciprofloxacin-resistant Escherichia coli 72 by agar plating method; format: functional
# Escherichia coli [3] = test: Bactericidal activity against ampicillin/trimethoprim/nalidixic acid-resistant Escherichia coli 118 by agar plating method; format: functional
# Escherichia coli [4] = test: Bactericidal activity against ampicillin/tetracycline/gentamicin-resistant Escherichia coli 451 by agar plating method; format: functional
# Escherichia coli [5] = test: Bactericidal activity against chloramphenicol/ampicillin/trimethoprim/ciprofloxacin/nalidixic acid-resistant Escherichia coli 59 by agar plating method; format: functional
# Escherichia coli [6] = test: Bactericidal activity against ampicillin/kanamycin/trimethoprim/tetracyclin/ciprofloxacin/nalidixic acid-resistant Escherichia coli 81 by agar plating method; format: functional
# Escherichia coli [7] = test: Bactericidal activity against chloramphenicol/ampicillin/kanamycin/trimethoprim/ciprofloxacin/nalidixic acid-resistant Escherichia coli 132 by agar plating method; format: functional
# Escherichia coli [8] = test: Bactericidal activity against chloramphenicol/ampicillin/kanamycin/trimethoprim/ciprofloxacin/nalidixic acid-resistant Escherichia coli 151 by agar plating method; format: functional
# Escherichia coli [9] = test: Bactericidal activity against ampicillin/chloramphenicol/ciprofloxacin/gentamicin/tetracycline-resistant Escherichia coli 401 by agar plating method; format: functional
# Escherichia coli [10] = test: Bactericidal activity against ampicillin/ciprofloxacin/gentamicin/tetracycline-resistant Escherichia coli 555 by agar plating method; format: functional
# Escherichia coli [11] = test: Inhibition of Escherichia coli DNA gyrase using relaxed pHOT1 plasmid DNA as substrate assessed as inhibition of DNA supercoiling up to 100 uM after 30 mins by agarose gel electrophoresis
# Homo sapiens = species on record: Homo sapiens; test: Inhibition of human DNA topoisomerase-1B using supercoiled pHOT1 plasmid DNA as substrate assessed as inhibition of DNA relaxation at 100 uM after 30 mins by agarose gel electrophoresis
# Escherichia coli [12] = test: Antibacterial activity against Escherichia coli ATCC 25922 assessed as growth inhibition after 18 to 24 hrs by broth microdilution method; format: functional
# Escherichia coli [13] = test: Bactericidal activity against Escherichia coli DH5[alpha] by agar plating method; format: functional
# Escherichia coli [14] = test: Bactericidal activity against Escherichia coli ATCC 25922 by agar plating method; format: functional
# Escherichia coli [15] = test: Antibacterial activity against ampicillin/trimethoprim/nalidixic acid-resistant Escherichia coli 118 assessed as growth inhibition after 18 to 24 hrs by broth microdilution method; format: functional
# Escherichia coli [16] = test: Antibacterial activity against chloroamphenicol/ampicillin/kanamycin/trimethoprim/ciprofloxacin/nalidixic acid-resistant Escherichia coli 85 assessed as growth inhibition after 18 to 24 hrs by broth microdilution method; format: functional
# Escherichia coli [17] = test: Antibacterial activity against gentamicin/kanamycin/tetracycline/nalidixic acid-resistant Escherichia coli 360 assessed as growth inhibition after 18 to 24 hrs by broth microdilution method; format: functional
# Escherichia coli [18] = test: Antibacterial activity against ampicillin/tetracycline/gentamicin-resistant Escherichia coli 451 assessed as growth inhibition after 18 to 24 hrs by broth microdilution method; format: functional
# Escherichia coli [19] = test: Antibacterial activity against chloramphenicol/ampicillin/trimethoprim/ciprofloxacin/nalidixic acid-resistant Escherichia coli 59 assessed as growth inhibition after 18 to 24 hrs by broth microdilution method; format: functional
# Escherichia coli [20] = test: Antibacterial activity against chloramphenicol/ampicillin/kanamycin/trimethoprim/ciprofloxacin/nalidixic acid-resistant Escherichia coli 132 assessed as growth inhibition after 18 to 24 hrs by broth microdilution method; format: functional
# Escherichia coli [21] = test: Antibacterial activity against chloramphenicol/ampicillin/kanamycin/trimethoprim/ciprofloxacin/nalidixic acid-resistant Escherichia coli 151 assessed as growth inhibition after 18 to 24 hrs by broth microdilution method; format: functional
# Escherichia coli [22] = test: Bactericidal activity against multidrug-resistant Escherichia coli IS 54 isolated from water source by agar plating method; conditions: IS 54, Water
# Escherichia coli [23] = test: Bactericidal activity against ampicillin/tetracycline-resistant Escherichia coli IP18 isolated from water source by agar plating method
# Escherichia coli [24] = test: Bactericidal activity against ampicillin/trimethoprim/piperacillin-resistant Escherichia coli MKNJ isolated from water source by agar plating method
# Escherichia coli [25] = test: Bactericidal activity against ampicillin/chloramphenicol/tetracycline/trimethoprim/ciprofloxacin-resistant Escherichia coli KK45 isolated from water source by agar plating method
# Escherichia coli [26] = test: Antibacterial activity against multidrug-resistant Escherichia coli IS 54 isolated from water source assessed as growth inhibition after 18 to 24 hrs by broth microdilution method; conditions: IS 54, Water
# Escherichia coli [27] = test: Antibacterial activity against ampicillin/tetracycline-resistant Escherichia coli IP18 isolated from water source assessed as growth inhibition after 18 to 24 hrs by broth microdilution method
# Escherichia coli [28] = test: Antibacterial activity against tetracycline/trimethoprim-resistant Escherichia coli IST isolated from water source assessed as growth inhibition after 18 to 24 hrs by broth microdilution method
# Escherichia coli [29] = test: Bactericidal activity against ampicillin/trimethoprim/cefazolinl/piperacillin/cefuroxime/cefoxitine/cefepime/cefotaxime-resistant Escherichia coli KP21 isolated from water source by agar plating method
# Escherichia coli [30] = test: Bactericidal activity against cefazolinl/ampicillin/piperacillin/cefuroxime/cefepime/cefotaxime/tetracycline/trimethoprim-resistant Escherichia coli KK16 isolated from water source by agar plating method
# Escherichia coli [31] = test: Antibacterial activity against ampicillin/tetracycline/piperacillin-resistant Escherichia coli WB31 isolated from water source assessed as growth inhibition after 18 to 24 hrs by broth microdilution method
# Escherichia coli [32] = test: Antibacterial activity against ampicillin/trimethoprim/piperacillin-resistant Escherichia coli MKNJ isolated from water source assessed as growth inhibition after 18 to 24 hrs by broth microdilution method
# Escherichia coli [33] = test: Antibacterial activity against ampicillin/chloramphenicol/tetracycline/trimethoprim/ciprofloxacin-resistant Escherichia coli KK45 isolated from water source assessed as growth inhibition after 18 to 24 hrs by broth microdilution method
# Escherichia coli [34] = test: Antibacterial activity against ampicillin/trimethoprim/cefazolinl/piperacillin/cefuroxime/cefoxitine/cefepime/cefotaxime-resistant Escherichia coli KP21 isolated from water source assessed as growth inhibition after 18 to 24 hrs by broth microdilution method
# Escherichia coli [35] = test: Antibacterial activity against cefazolinl/ampicillin/piperacillin/cefuroxime/cefepime/cefotaxime/tetracycline/ciprofloxacin-resistant Escherichia coli NG3 isolated from water source assessed as growth inhibition after 18 to 24 hrs by broth microdilution method
smiles,measurement,setting,value
CCCN1CCN(c2ccc3nc(-c4ccc5nc(-c6ccc(OC)c(OC)c6)[nH]c5c4)[nH]c3c2)CC1,MIC50,Escherichia coli [1],16 µg/mL
same,MIC90,Escherichia coli [1],29.8 µg/mL
same,MBC,Escherichia coli [2],4 µg/mL
same,MBC,Escherichia coli [3],4 µg/mL
same,MBC,Escherichia coli [4],8 µg/mL
same,MBC,Escherichia coli [5],8 µg/mL
same,MBC,Escherichia coli [6],16 µg/mL
same,MBC,Escherichia coli [7],128 µg/mL
same,MBC,Escherichia coli [8],16 µg/mL
same,MBC,Escherichia coli [9],8 µg/mL
same,MBC,Escherichia coli [10],32 µg/mL
same,inhibition,Escherichia coli [11],inactive
same,inhibition,Homo sapiens,Active
same,MIC50,Escherichia coli [12],8 µg/mL
same,MIC90,Escherichia coli [12],12.5 µg/mL
same,MBC,Escherichia coli [13],4 µg/mL
same,MBC,Escherichia coli [14],16 µg/mL
same,MIC50,Escherichia coli [15],2 µg/mL
same,MIC90,Escherichia coli [15],3.2 µg/mL
same,MIC50,Escherichia coli [16],8 µg/mL
same,MIC90,Escherichia coli [16],15.2 µg/mL
same,MIC50,Escherichia coli [17],8 µg/mL
same,MIC90,Escherichia coli [17],15.2 µg/mL
same,MIC50,Escherichia coli [18],4 µg/mL
same,MIC90,Escherichia coli [18],7.6 µg/mL
same,MIC50,Escherichia coli [19],4 µg/mL
same,MIC90,Escherichia coli [19],7.5 µg/mL
same,MIC50,Escherichia coli [20],64 µg/mL
same,MIC90,Escherichia coli [20],118 µg/mL
same,MIC50,Escherichia coli [21],8 µg/mL
same,MIC90,Escherichia coli [21],15.1 µg/mL
same,MBC,Escherichia coli [22],16 µg/mL
same,MBC,Escherichia coli [23],8 µg/mL
same,MBC,Escherichia coli [24],8 µg/mL
same,MBC,Escherichia coli [25],8 µg/mL
same,MIC50,Escherichia coli [26],8 µg/mL
same,MIC90,Escherichia coli [26],14.8 µg/mL
same,MIC50,Escherichia coli [27],4 µg/mL
same,MIC90,Escherichia coli [27],7.6 µg/mL
same,MIC50,Escherichia coli [28],8 µg/mL
same,MIC90,Escherichia coli [28],14.9 µg/mL
same,MBC,Escherichia coli [29],16 µg/mL
same,MBC,Escherichia coli [30],4 µg/mL
same,MIC50,Escherichia coli [31],8 µg/mL
same,MIC90,Escherichia coli [31],15.2 µg/mL
same,MIC50,Escherichia coli [32],4 µg/mL
same,MIC90,Escherichia coli [32],7.6 µg/mL
same,MIC50,Escherichia coli [33],4 µg/mL
same,MIC90,Escherichia coli [33],7.7 µg/mL
same,MIC50,Escherichia coli [34],8 µg/mL
same,MIC90,Escherichia coli [34],14.8 µg/mL
same,MIC50,Escherichia coli [35],4 µg/mL
same,MIC90,Escherichia coli [35],7.6 µg/mL
CCCN1CCN(c2ccc3nc(-c4ccc5nc(-c6ccc(OCC)cc6)[nH]c5c4)[nH]c3c2)CC1,MIC50,Escherichia coli [1],4 µg/mL
same,MIC90,Escherichia coli [1],6.8 µg/mL
same,MBC,Escherichia coli [2],4 µg/mL
same,MBC,Escherichia coli [3],2 µg/mL
same,MBC,Escherichia coli [4],2 µg/mL
same,MBC,Escherichia coli [5],4 µg/mL
same,MBC,Escherichia coli [6],2 µg/mL
same,MBC,Escherichia coli [7],4 µg/mL
same,MBC,Escherichia coli [8],2 µg/mL
same,MBC,Escherichia coli [9],2 µg/mL
same,MBC,Escherichia coli [10],8 µg/mL
same,inhibition,Escherichia coli [11],inactive
same,inhibition,Homo sapiens,inactive
same,MIC50,Escherichia coli [12],0.2 µg/mL
same,MIC90,Escherichia coli [12],3.3 µg/mL
same,MBC,Escherichia coli [13],0.2 µg/mL
same,MBC,Escherichia coli [14],0.4 µg/mL
same,MIC50,Escherichia coli [15],1 µg/mL
same,MIC90,Escherichia coli [15],1.7 µg/mL
same,MIC50,Escherichia coli [16],1 µg/mL
same,MIC90,Escherichia coli [16],1.7 µg/mL
same,MIC50,Escherichia coli [17],1 µg/mL
same,MIC90,Escherichia coli [17],1.6 µg/mL
same,MIC50,Escherichia coli [18],1 µg/mL
same,MIC90,Escherichia coli [18],1.7 µg/mL
same,MIC50,Escherichia coli [19],2 µg/mL
same,MIC90,Escherichia coli [19],3.4 µg/mL
same,MIC50,Escherichia coli [20],2 µg/mL
same,MIC90,Escherichia coli [20],3.5 µg/mL
same,MIC50,Escherichia coli [21],1 µg/mL
same,MIC90,Escherichia coli [21],1.7 µg/mL
same,MBC,Escherichia coli [22],2 µg/mL
same,MBC,Escherichia coli [23],4 µg/mL
same,MBC,Escherichia coli [24],4 µg/mL
same,MBC,Escherichia coli [25],2 µg/mL
same,MIC50,Escherichia coli [26],0.5 µg/mL
same,MIC90,Escherichia coli [26],1.6 µg/mL
same,MIC50,Escherichia coli [27],1 µg/mL
same,MIC90,Escherichia coli [27],3.4 µg/mL
same,MIC50,Escherichia coli [28],0.5 µg/mL
same,MIC90,Escherichia coli [28],1.7 µg/mL
same,MBC,Escherichia coli [29],4 µg/mL
same,MBC,Escherichia coli [30],2 µg/mL
same,MIC50,Escherichia coli [31],0.5 µg/mL
same,MIC90,Escherichia coli [31],1.7 µg/mL
same,MIC50,Escherichia coli [32],1 µg/mL
same,MIC90,Escherichia coli [32],3.5 µg/mL
same,MIC50,Escherichia coli [33],0.5 µg/mL
same,MIC90,Escherichia coli [33],1.7 µg/mL
same,MIC50,Escherichia coli [34],0.5 µg/mL
same,MIC90,Escherichia coli [34],3.8 µg/mL
same,MIC50,Escherichia coli [35],0.5 µg/mL
same,MIC90,Escherichia coli [35],1.7 µg/mL
